The results in this text go back to the NIST ThermoML archive (doi:10.1007/s10765-012-1159-3).

For this series the following is noted: 101.33 kPa, Liquid; for kinematic viscosity: Capillary tube (Ostwald / Ubbelohde) method; for mass density: Vibrating tube method.

Molecules are shown by their SMILES. Numbers after ± are expanded uncertainties.

The term mass density denotes mass per unit of volume.

Take `C1CCCCC1` [cyclohexane]: where the note is “293.15 K”, the kinematic viscosity turned out to be 1.256e-06 ± 1.1e-08 m2/s and the mass density was 778.7 ± 0.6 kg/m3. Besides, under “298.15 K”, the kinematic viscosity stood at 1.154e-06 ± 1e-08 m2/s and the mass density is listed as 773.9 ± 0.6 kg/m3.

Turning to `CCc1ccccc1` [ethylbenzene], under “293.15 K”, the kinematic viscosity turned out to be 7.767e-07 ± 7.4e-09 m2/s and the mass density amounted to 867.1 ± 0.6 kg/m3. Where the note is “298.15 K”, the kinematic viscosity was determined as 7.323e-07 ± 7.2e-09 m2/s and the mass density was found to be 862.7 ± 0.6 kg/m3.

With `CCCCCC` [hexane], under “293.15 K”, the kinematic viscosity was found to be 4.7e-07 ± 5.6e-09 m2/s and the mass density was found to be 659.4 ± 0.6 kg/m3. Further, for the setting “298.15 K”, the kinematic viscosity amounted to 4.49e-07 ± 5.5e-09 m2/s and the mass density is 654.9 ± 0.6 kg/m3.

On to `CCCCCCCC` [octane], for which, under “293.15 K”, the kinematic viscosity came to 7.734e-07 ± 7.4e-09 m2/s and the mass density came out at 702.5 ± 0.6 kg/m3. Further, for the setting “298.15 K”, the kinematic viscosity came out at 7.313e-07 ± 7.1e-09 m2/s and the mass density was determined as 698.5 ± 0.6 kg/m3.

For the molecule `Cc1ccccc1` [toluene], where the note is “293.15 K”, the kinematic viscosity turned out to be 6.8e-07 ± 6.8e-09 m2/s and the mass density is reported as 866.7 ± 0.6 kg/m3. Further, where the note is “298.15 K”, the kinematic viscosity was determined as 6.41e-07 ± 6.6e-09 m2/s and the mass density is 862 ± 0.6 kg/m3.
